The test concerns the target T1, estrogen receptor (Homo sapiens, UniProt P03372).
T1 construct: since the MCF-7 cells express estrogen receptors; endogenous in cells; host or cells: MCF-7 human breast carcinoma cells infected with adenovirus 5-ERE-tk-luciferase (reporter only)
T1 sequence (P03372 1-595): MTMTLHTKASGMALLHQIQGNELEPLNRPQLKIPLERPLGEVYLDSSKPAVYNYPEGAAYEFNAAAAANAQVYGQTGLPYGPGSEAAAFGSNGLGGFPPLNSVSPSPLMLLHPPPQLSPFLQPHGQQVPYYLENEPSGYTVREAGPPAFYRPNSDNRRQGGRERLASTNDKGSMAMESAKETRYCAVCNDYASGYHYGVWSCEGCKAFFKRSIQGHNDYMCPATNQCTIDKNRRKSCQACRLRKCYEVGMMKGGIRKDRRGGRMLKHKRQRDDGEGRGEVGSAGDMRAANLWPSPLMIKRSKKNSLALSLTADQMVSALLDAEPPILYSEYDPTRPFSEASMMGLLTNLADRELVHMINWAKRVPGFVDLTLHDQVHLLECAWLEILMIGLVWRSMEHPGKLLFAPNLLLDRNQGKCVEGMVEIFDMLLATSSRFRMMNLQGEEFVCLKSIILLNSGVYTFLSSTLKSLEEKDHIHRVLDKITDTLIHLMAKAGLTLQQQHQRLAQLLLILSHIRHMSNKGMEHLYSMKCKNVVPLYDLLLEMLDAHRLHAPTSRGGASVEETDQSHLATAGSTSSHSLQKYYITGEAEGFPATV
In words: MCF-7 ERE-tk-luciferase test procedure, antagonist mode. The test is classed as cell-based. The following applies: co-dosed with 10 pM 17β-estradiol, MCF-7 cells infected with adenovirus 5-ERE-tk-luciferase, treated 24 h. The text has this:
Estrogen antagonist activity was shown for representative compounds of this invention in a standard pharmacological test procedure using MCF-7 cells transfected with an estrogen receptor. When administered orally, the compounds of this invention act at least partially as prodrugs for the corresponding hydroxylated compounds disclosed in EP 802183. Accordingly, the compounds of this invention are tissue selective estrogens, meaning that in certain tissue containing estrogen receptors, the compounds will act as estrogen agonists, and in other tissue containing estrogen receptors, the compounds will act as antagonists. […]
After treatment the cells were lysed on a shaker for 15 min with 25 uL/well of 1× cell culture lysis reagent (Promega Corporation). The cell lysates (20 uL) were transferred to a 96 well luminometer plate, and luciferase activity was measured in a MicroLumat LB 96 P luminometer (EG and G Bethold) using 100 uL/well of luciferase substrate (Promega Corporation). […] Following the injection of the substrate, luciferase activity was measured for 10 seconds after a 1 second delay. The data were transferred from the luminometer to a Macintosh personal computer and analyzed using the JMP software (SAS institute); this program subtracts the background reading from the luciferase measurement for each well and then determine the mean and standard deviation of each treatment. […]

Counter-ions that a name gives are not always drawn.

In the case of `Cc1c(-c2ccc(O)cc2)n(Cc2ccc(OCCN3CCCCC3)cc2)c2ccc(O[C@@H]3O[C@H](C(=O)O)[C@@H](O)[C@H](O)[C@H]3O)cc12` [Compound 29, 1-[4-(2-Piperidin-1-yl-ethoxy)-benzyl]-2-(4-hydroxy-phenyl)-3-methyl-1H-indol-5-ol 5-O-glucuronide triethylammonium salt], half-maximal inhibition (IC50) required 230 nM.
For the molecule `Cc1c(-c2ccc(O[C@@H]3O[C@H](C(=O)O)[C@@H](O)[C@H](O)[C@H]3O)cc2)n(Cc2ccc(OCCN3CCCCC3)cc2)c2ccc(O)cc12` [Compound 37, 2-(4-Hydroxy-phenyl)-3-methyl-1-[4-(2-piperidin-1-yl-ethoxy)-benzyl]-1H-indol-5-ol 4-O-Glucuronide Triethyl Ammonium Salt], the IC50 – broadly, the point on the concentration scale where inhibition reaches its midpoint – was 1200 nM.

Values taken from patent US6380166B1, “Glucopyranosides conjugates of 2-(4-hydroxy-phenyl)-3-methyl-1-[4-(2-amin-1-yl-ethoxy)-benzyl]-1H-indol-5-ols” (American Home Products Corporation, priority 1999, dated 2002).
